Source: ChEMBL document CHEMBL5356958, “Discovery of a Highly Potent and Selective MYOF Inhibitor with Improved Water Solubility for the Treatment of Gastric Cancer” (J Med Chem, 2023)
Converted amounts (≈) assume the structure as drawn.

Tests used:
[1] = tested on: MKN-45; assay: Antiproliferative activity against human MKN-45 cells incubated for 48 hrs by SRB assay; assay type: functional, cell-based; conditions: MKN-45, 48 h
[2] = tested on: MGC-803; assay: Antiproliferative activity against human MGC-803 cells incubated for 48 hrs by SRB assay; assay type: functional, cell-based; conditions: MGC-803, 48 h
[3] = biological target: hERG (KCNH2) (Homo sapiens, UniProt Q12809); assay: Inhibition of human ERG at 3 uM relative to control; assay type: toxicity
[4] = tested on: MKN-45; assay: Antitumor activity against human MKN-45 cells xenografted in BALB/c mouse assessed as tumor growth inhibition at 15 mg/kg/day, ip measured every 3 days for 21 days; assay type: functional; conditions: MKN-45, 504 h, time 21 day, read-out: TGI
[5] = Aqueous solubility of compound in PBS at pH 7.4; assay type: physicochemical
[6] = Aqueous solubility of compound in PBS at pH 9; assay type: physicochemical
[7] = Aqueous solubility of compound in PBS at pH 2; assay type: physicochemical
[8] = tested on: MKN-45; assay: Antitumor activity against human MKN-45 cells xenografted in BALB/c mouse assessed as tumor growth inhibition at 30 mg/kg/day, ip measured every 3 days for 21 days; assay type: functional; conditions: MKN-45, 504 h, time 21 day, read-out: TGI
[9] = biological target: Myoferlin (Homo sapiens, UniProt Q9NZM1); assay: Binding affinity to human MYOF C2D by SPR method
Sequence of Myoferlin (Q9NZM1 whole entry): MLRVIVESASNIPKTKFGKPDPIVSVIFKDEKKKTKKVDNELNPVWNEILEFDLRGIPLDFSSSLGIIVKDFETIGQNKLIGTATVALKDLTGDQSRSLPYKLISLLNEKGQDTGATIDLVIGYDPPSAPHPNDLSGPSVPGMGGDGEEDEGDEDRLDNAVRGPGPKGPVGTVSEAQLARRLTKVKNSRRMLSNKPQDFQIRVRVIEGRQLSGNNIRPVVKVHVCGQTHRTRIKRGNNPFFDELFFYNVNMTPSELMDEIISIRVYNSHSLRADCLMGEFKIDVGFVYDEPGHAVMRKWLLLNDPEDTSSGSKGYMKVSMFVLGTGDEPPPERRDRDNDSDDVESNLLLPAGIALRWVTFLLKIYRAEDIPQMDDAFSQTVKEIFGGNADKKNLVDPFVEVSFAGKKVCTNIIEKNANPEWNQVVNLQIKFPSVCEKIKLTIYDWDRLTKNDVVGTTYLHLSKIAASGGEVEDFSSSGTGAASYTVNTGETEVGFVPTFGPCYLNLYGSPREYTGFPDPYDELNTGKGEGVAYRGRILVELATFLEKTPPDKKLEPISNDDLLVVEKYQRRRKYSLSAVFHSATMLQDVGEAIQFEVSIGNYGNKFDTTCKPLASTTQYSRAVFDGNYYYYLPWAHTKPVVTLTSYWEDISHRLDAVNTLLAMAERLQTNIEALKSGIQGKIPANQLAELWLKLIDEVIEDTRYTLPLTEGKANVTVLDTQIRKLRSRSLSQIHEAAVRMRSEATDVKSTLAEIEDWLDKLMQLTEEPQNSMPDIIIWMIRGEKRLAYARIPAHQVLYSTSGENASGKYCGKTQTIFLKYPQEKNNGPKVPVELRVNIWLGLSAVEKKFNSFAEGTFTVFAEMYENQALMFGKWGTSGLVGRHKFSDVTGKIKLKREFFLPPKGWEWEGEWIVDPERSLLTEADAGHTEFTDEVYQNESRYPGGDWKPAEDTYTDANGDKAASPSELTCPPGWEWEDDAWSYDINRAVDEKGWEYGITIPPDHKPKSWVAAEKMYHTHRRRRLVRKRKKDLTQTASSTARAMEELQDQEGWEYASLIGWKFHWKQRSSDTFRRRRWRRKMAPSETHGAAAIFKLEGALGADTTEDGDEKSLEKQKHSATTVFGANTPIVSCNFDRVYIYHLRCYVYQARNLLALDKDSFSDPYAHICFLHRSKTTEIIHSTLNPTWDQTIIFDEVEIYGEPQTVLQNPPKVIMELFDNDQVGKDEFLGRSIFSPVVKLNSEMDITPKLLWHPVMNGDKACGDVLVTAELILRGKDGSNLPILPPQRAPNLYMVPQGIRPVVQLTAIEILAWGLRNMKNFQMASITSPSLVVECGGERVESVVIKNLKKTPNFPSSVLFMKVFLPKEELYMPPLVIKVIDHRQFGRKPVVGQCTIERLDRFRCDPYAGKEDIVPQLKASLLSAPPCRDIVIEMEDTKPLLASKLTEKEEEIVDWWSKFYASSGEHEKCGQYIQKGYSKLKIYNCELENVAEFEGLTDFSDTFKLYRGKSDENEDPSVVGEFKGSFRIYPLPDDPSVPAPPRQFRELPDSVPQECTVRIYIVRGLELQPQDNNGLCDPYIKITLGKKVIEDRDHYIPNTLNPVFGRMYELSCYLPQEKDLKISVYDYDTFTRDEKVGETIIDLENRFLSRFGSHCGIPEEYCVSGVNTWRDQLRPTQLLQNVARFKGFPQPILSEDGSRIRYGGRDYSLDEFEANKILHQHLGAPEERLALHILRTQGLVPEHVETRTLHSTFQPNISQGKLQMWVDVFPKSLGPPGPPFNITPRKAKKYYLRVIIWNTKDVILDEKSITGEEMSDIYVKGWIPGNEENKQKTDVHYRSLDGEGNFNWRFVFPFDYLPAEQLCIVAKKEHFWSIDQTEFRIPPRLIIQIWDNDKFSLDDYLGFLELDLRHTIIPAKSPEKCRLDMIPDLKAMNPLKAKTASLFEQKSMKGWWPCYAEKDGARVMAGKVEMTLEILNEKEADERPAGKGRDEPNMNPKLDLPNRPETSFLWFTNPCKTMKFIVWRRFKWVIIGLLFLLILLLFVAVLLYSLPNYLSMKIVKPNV

Sequence of hERG (KCNH2) (Q12809 whole entry): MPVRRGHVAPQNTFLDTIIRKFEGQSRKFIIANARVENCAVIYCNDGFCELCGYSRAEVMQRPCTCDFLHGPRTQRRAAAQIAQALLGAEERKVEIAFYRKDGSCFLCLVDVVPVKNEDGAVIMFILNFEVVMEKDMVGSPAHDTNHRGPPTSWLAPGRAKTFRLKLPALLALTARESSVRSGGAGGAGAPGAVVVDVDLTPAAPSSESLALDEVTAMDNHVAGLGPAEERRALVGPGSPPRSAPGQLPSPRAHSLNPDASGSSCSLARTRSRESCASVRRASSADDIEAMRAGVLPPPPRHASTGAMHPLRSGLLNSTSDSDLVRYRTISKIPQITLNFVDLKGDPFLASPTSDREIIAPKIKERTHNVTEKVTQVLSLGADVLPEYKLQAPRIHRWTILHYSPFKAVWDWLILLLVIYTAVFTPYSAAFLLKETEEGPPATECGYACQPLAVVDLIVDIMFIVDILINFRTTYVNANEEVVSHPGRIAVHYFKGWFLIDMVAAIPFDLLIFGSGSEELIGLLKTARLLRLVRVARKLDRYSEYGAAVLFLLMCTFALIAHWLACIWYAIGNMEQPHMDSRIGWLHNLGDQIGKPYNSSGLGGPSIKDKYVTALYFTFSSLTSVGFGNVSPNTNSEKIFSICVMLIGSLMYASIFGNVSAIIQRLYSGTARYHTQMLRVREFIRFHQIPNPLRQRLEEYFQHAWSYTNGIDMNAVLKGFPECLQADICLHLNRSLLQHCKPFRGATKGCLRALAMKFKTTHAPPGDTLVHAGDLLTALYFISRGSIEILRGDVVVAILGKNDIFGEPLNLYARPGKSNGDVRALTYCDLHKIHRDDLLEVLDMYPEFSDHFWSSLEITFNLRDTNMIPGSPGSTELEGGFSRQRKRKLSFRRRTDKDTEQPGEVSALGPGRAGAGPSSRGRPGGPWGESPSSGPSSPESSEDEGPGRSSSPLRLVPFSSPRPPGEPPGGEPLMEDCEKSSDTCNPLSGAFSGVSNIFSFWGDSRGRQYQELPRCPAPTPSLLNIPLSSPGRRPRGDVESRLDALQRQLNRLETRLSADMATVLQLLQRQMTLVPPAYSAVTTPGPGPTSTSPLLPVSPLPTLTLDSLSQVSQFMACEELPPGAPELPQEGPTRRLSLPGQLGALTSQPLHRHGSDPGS

CCc1nc(-c2ccc(OC)cc2)n(-c2cccc(C(=O)NCCCCCn3nccn3)c2)n1
IC50 [1]: 6610 nM
IC50 [2]: 2120 nM

CCc1nc(-c2cccc(OC)c2)n(-c2cccc(C(=O)NCCCCn3nccn3)c2)n1
IC50 [1]: 9140 nM
IC50 [2]: 7290 nM

CCc1nc(-c2ncc(OC)cn2)n(-c2cccc(C(=O)NCCCCn3nccn3)c2)n1
IC50 [1]: 500 nM
IC50 [2]: 560 nM

CCc1nc(-c2ccc(OC)cc2)n(-c2cccc(C(=O)NCCCCn3cnnn3)c2)n1
IC50 [1]: > 10000 nM
IC50 [2]: > 10000 nM

CCc1nc(-c2ccc(OC)cc2)n(-c2cccc(C(=O)NCCCCn3nc(Br)c(Br)n3)c2)n1
IC50 [1]: > 10000 nM
IC50 [2]: 9800 nM

CCc1nc(-c2ccc(Cl)cc2)n(-c2cccc(C(=O)NCCCCn3nccn3)c2)n1
IC50 [1]: 330 nM
IC50 [2]: 730 nM

CCc1nc(-c2ccc(OC)cc2)n(-c2cccc(C(=O)NCCCCn3ccnn3)c2)n1
IC50 [1]: > 10000 nM
IC50 [2]: > 10000 nM

COc1cc(N)c(Cl)cc1C(=O)NC1CCN(CCCOc2ccc(F)cc2)CC1OC (stereo not drawn) [CISAPRIDE]
inhibition at 3 µM [3]: 107%

CCc1nc(-c2ccc(OC)cc2)n(-c2cccc(C(=O)NCCCCn3cc(F)cn3)c2)n1
IC50 [1]: 5910 nM
IC50 [2]: 10800 nM

CCc1nc(-c2ccc(OC)cc2)n(-c2cccc(C(=O)NCCCCCCn3nccn3)c2)n1
IC50 [1]: 9590 nM
IC50 [2]: > 10000 nM

CCc1nc(-c2ccc(Br)cc2)n(-c2cccc(C(=O)NCCCCn3nccn3)c2)n1
IC50 [1]: > 10000 nM
IC50 [2]: 11100 nM

CCc1nc(-c2ccc(OC)cc2)n(-c2cccc(C(=O)NCCCn3nccn3)c2)n1
IC50 [1]: > 10000 nM
IC50 [2]: > 10000 nM

O=c1[nH]cc(F)c(=O)[nH]1 [FLUOROURACIL]
inhibition in vivo at 15 mg/kg/day [4]: 39.2%

CCc1nc(-c2ccc(OC)cc2)n(-c2cccc(C(=O)NCCCCn3ncc(Br)n3)c2)n1
solubility [5]: < 1.6 µM
solubility [6]: < 1.6 µM
IC50 [1]: 260 nM
IC50 [2]: 270 nM
solubility [7]: 21.4 µM (≈ 11.2 µg/mL)

CCc1nc(-c2ccc(OC)cc2)n(-c2cccc(C(=O)NCCn3nccn3)c2)n1
IC50 [1]: > 10000 nM
IC50 [2]: > 10000 nM

CCc1nc(-c2ccc(OC)cc2)n(-c2cccc(C(=O)NCCCCn3ncnn3)c2)n1
solubility [5]: 194 µM (≈ 86.7 µg/mL)
solubility [6]: 186 µM (≈ 83.1 µg/mL)
IC50 [1]: 2860 nM
IC50 [2]: 580 nM
solubility [7]: 877 µM (≈ 392 µg/mL)

CCc1nc(-c2ccc(OC)cc2)n(-c2cccc(C(=O)NCCCCn3cncn3)c2)n1
IC50 [1]: > 10000 nM
IC50 [2]: > 10000 nM

CCc1nc(-c2ccc(OC)cc2)n(-c2cccc(C(=O)NCCCCN3CCCCC3)c2)n1
IC50 [1]: > 10000 nM
IC50 [2]: > 10000 nM

CCc1nc(-c2ccc(OC)cc2)n(-c2cccc(C(=O)NCCCCn3cccn3)c2)n1
solubility [5]: 393 µM (≈ 175 µg/mL)
solubility [6]: 352 µM (≈ 156 µg/mL)
IC50 [1]: 540 nM
IC50 [2]: 750 nM
solubility [7]: 1120 µM (≈ 499 µg/mL)

CCc1nc(-c2ccc(C)cc2)n(-c2cccc(C(=O)NCCCCn3nccn3)c2)n1
IC50 [1]: 300 nM
IC50 [2]: 600 nM

CCc1nc(-c2ccc(OC)nc2)n(-c2cccc(C(=O)NCCCCn3nccn3)c2)n1
IC50 [1]: 2750 nM
IC50 [2]: 7870 nM

CCc1nc(-c2ncc(OC)cn2)n(-c2cccc(C(=O)NCCCCc3ccccc3)c2)n1
solubility [5]: < 1.6 µM
solubility [6]: < 1.6 µM
IC50 [1]: 410 nM
inhibition in vivo at 30 mg/kg/day [8]: 52.2%
IC50 [2]: 250 nM
solubility [7]: 1.7 µM (≈ 0.776 µg/mL)

CCc1nc(-c2ccc(C(F)(F)F)cc2)n(-c2cccc(C(=O)NCCCCn3nccn3)c2)n1
IC50 [1]: 2700 nM
IC50 [2]: 3140 nM

CCCc1ccc(-c2nc(CC)nn2-c2cccc(C(=O)NCCCCn3nccn3)c2)cc1
IC50 [1]: 1970 nM
IC50 [2]: 4070 nM

CCc1nc(-c2ccc(OC)cc2)n(-c2cccc(C(=O)NCCCCn3cc(Br)cn3)c2)n1
IC50 [1]: 4460 nM
IC50 [2]: 4380 nM

CCc1nc(-c2ccc(OC)cc2)n(-c2cccc(C(=O)NCCCCn3ccnc3)c2)n1
IC50 [1]: > 10000 nM
IC50 [2]: > 10000 nM

CCc1nc(-c2ccc(F)cc2)n(-c2cccc(C(=O)NCCCCn3nccn3)c2)n1
IC50 [1]: 300 nM
IC50 [2]: 1370 nM

CCc1ccc(-c2nc(CC)nn2-c2cccc(C(=O)NCCCCn3nccn3)c2)cc1
IC50 [1]: 400 nM
IC50 [2]: 1010 nM

CCc1nc(-c2ccc(OC)cc2)n(-c2cccc(C(=O)NCCCCc3ccccn3)c2)n1
IC50 [1]: > 10000 nM
IC50 [2]: 3240 nM

CCc1nc(-c2ccc(OC(F)(F)F)cc2)n(-c2cccc(C(=O)NCCCCn3nccn3)c2)n1
IC50 [1]: 5140 nM
IC50 [2]: 3870 nM

CCc1nc(-c2ccc(OC)cc2)n(-c2cccc(C(=O)NCCCCn3cc(Br)nn3)c2)n1
IC50 [1]: > 10000 nM
IC50 [2]: > 10000 nM

CCc1nc(-c2ccc(OC)cc2)n(-c2cccc(C(=O)NCCCCc3cccs3)c2)n1
IC50 [1]: 760 nM
IC50 [2]: 520 nM

CCc1nc(-c2ccc(OC)cc2)n(-c2cccc(C(=O)NCCCCc3ccncc3)c2)n1
IC50 [1]: > 10000 nM
IC50 [2]: > 10000 nM

COc1ccccc1N1C(=O)CSC1c1cccc(C(=O)NCCCCc2ccccc2)c1 (stereo not drawn)
Kd [9]: 1330 nM

CCc1nc(-c2ccc(O)cc2)n(-c2cccc(C(=O)NCCCCn3nccn3)c2)n1
IC50 [1]: 490 nM
IC50 [2]: 940 nM

CCc1nc(-c2ccccc2OC)n(-c2cccc(C(=O)NCCCCn3nccn3)c2)n1
IC50 [1]: 2580 nM
IC50 [2]: 8310 nM

CCc1nc(-c2ccc(OC)cn2)n(-c2cccc(C(=O)NCCCCn3nccn3)c2)n1
IC50 [1]: 250 nM
IC50 [2]: 1700 nM

CCc1nc(-c2ccccc2)n(-c2cccc(C(=O)NCCCCn3nccn3)c2)n1
IC50 [1]: 3120 nM
IC50 [2]: 6830 nM

CCc1nc(-c2ccc([N+](=O)[O-])cc2)n(-c2cccc(C(=O)NCCCCn3nccn3)c2)n1
IC50 [1]: 880 nM
IC50 [2]: 5520 nM
